Laboratory results reported in PMC7642425, “Engineering cofactor supply and NADH-dependent D-galacturonic acid reductases for redox-balanced production of L-galactonate in Saccharomyces cerevisiae” (Scientific Reports, 2020).

Key:
AnGaaA = molecular target: T1, AnGaaA (Aspergillus niger, UniProt A8DRH9); assay: HPLC of L-galactonate in cultures of expressing yeast; type: cell-based; conditions: whole cells, sorbitol co-substrate, YlSdr supplying NADPH, pH 6.3, 30 °C
T1 construct: gene gaaA; synthetic ORF codon optimized for S. cerevisiae; expressed from multicopy plasmid in yeast; whole-cell conversion
T1 sequence (A8DRH9 1-412): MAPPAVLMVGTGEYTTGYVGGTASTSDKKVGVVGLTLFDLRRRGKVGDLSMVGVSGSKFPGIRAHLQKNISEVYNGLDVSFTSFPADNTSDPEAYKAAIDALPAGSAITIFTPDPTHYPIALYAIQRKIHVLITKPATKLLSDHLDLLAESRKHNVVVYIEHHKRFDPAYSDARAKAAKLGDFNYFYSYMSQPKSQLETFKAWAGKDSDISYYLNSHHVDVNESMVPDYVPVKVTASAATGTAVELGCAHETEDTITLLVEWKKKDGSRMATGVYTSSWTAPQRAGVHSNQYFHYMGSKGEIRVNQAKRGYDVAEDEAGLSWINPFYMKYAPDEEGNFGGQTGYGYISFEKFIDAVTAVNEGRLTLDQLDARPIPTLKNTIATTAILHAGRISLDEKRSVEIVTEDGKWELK

TrGar1 = molecular target: T2, TrGar1 (Trichoderma reesei, UniProt Q3ZFI7); assay: as above; type: cell-based; conditions: whole cells, sorbitol co-substrate, YlSdr supplying NADPH, pH 6.3, 30 °C
T2 construct: gene gar1; synthetic ORF codon optimized for S. cerevisiae; expressed in yeast strains co-expressing GatA, Hxt13 and sorbitol dehydrogenase; whole-cell conversion
T2 sequence (Q3ZFI7 1-309): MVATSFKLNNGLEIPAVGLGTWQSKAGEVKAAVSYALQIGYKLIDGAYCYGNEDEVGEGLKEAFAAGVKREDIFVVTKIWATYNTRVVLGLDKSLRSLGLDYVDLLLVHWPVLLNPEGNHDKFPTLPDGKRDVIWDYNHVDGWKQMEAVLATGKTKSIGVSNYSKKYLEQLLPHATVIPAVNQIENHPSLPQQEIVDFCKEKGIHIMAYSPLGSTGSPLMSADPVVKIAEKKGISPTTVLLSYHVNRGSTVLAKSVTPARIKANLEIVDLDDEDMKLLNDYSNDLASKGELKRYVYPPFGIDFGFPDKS

AnGar1 [1] = molecular target: T3, AnGar1 (Aspergillus niger, UniProt A2R7U3); assay: NAD(P)H oxidation at […] nm, yeast crude extract; HPLC of L-galactonate in cultures; type: biochemical; conditions: 100 mM GalA, NADPH, 10 mM potassium phosphate pH 7.2
T3 construct: gene An16g04770; synthetic ORF codon optimized for S. cerevisiae; expressed from plasmid in yeast CEN.PK2-1C, clear crude extract assayed against empty-vector control
T3 sequence (A2R7U3 1-319): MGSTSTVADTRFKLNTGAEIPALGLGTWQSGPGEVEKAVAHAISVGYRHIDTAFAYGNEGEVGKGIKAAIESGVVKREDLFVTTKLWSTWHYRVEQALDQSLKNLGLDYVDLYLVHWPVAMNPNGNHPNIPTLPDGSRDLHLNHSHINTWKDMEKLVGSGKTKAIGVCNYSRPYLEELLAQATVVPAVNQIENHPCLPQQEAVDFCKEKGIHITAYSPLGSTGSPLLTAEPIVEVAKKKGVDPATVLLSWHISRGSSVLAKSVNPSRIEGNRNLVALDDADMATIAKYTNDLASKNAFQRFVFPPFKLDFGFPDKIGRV

AnGar1 [2] = molecular target: T3, AnGar1; assay: NADPH oxidation at […] nm, yeast crude extract; type: biochemical; conditions: 100 mM GalA, 160 or 800 uM NADPH, 10 mM potassium phosphate pH 7.2
AnGar1 [3] = molecular target: T3, AnGar1; assay: NADH oxidation at […] nm, yeast crude extract; type: biochemical; conditions: 160 or 800 uM NADH, 100 mM GalA, 10 mM potassium phosphate pH 7.2; competitive

O=C(O)[C@H]1OC(O)[C@H](O)[C@@H](O)[C@H]1O (stereo partly drawn) [D-galacturonic acid] was tested, and the “HPLC of L-galactonate in cultures of expressing yeast” value (AnGaaA) was “The lower titers observed with AnGaaA in comparison to TrGar1”, the “HPLC of L-galactonate in cultures of expressing yeast” value (TrGar1) was “Wildtype TrGar1 and AnGar1 produce comparable amount of GalOA” and the “NAD(P)H oxidation at 340 nm, yeast crude extract; HPLC of L-galactonate in cultu” value (AnGar1 [1]) was “we demonstrate, for the first time, the activity of AnGar1 as a GalA reductase”.

For NC(=O)C1=CN([C@@H]2O[C@H](COP(=O)(O)OP(=O)(O)OC[C@H]3O[C@@H](n4cnc5c(N)ncnc54)[C@H](OP(=O)(O)O)[C@@H]3O)[C@@H](O)[C@H]2O)C=CC1 [NADPH], the “NADPH oxidation at 340 nm, yeast crude extract” value (AnGar1 [2]) was “lower compared to those with NADPH of the wildtype enzyme”.

For NC(=O)c1ccc[n+]([C@@H]2O[C@H](COP(=O)(O)OP(=O)(O)OC[C@H]3O[C@@H](n4cnc5c(N)ncnc54)[C@H](OP(=O)(O)O)[C@@H]3O)[C@@H](O)[C@H]2O)c1 [NADP], the “relative activity (% of activity without NADP)” value (AnGar1 [3]) was “when NADP was added to competitively inhibit NADH binding, only the mutants were able”.
